Test [1] relates to ein2‐1 loss‐of‐function mutant seedlings. In words: Triple response assay, ethylene‐insensitive mutant. It is filed as in vivo, Arabidopsis thaliana. Particulars: ein2‐1, dark‐grown, ACC in agar vs w/o ACC. The text has this:
In the presence of ethylene, dark‐grown seedlings display the characteristic phenotypic responses known as triple response. We hypothesized that nucleocytoplasmic transport and nuclear import of the EIN2 cytosolic part (CEND), which bridges ethylene signal transduction from the ER membrane to the nucleus, are mediated by the IMPα‐IMPβ transport machinery. This hypothesis is supported by the previously identified NLS motif in the EIN2 C terminus. To investigate whether any of the IMPα isoforms are implicated in ethylene signaling, A. thaliana Col‐0 (wild‐type; positive control), single loss‐of‐function mutants of the IMPα isoforms (impα1‐impα9) obtained from the Nottingham Arabidopsis Stock Centre (NASC), and ethylene‐insensitive mutant ein2‐1 (negative control) were grown in the dark in the presence of the ethylene precursor 1‐aminocyclopropane‐1‐carboxylate (ACC) and subsequently analyzed for their triple response. […] The findings on the single impα mutants indicate that nucleocytoplasmic transport and nuclear import of EIN2 CEND cannot be attributed to a single IMPα isoform, possibly because of functional redundancy among the IMPα isoforms.
(§1) Around 10 mg of seeds was filled into a 2‐mL reaction tube and put into a desiccator with the lid opened. Additionally, a beaker with 100 mL 37% perchloric acid was put into the desiccator. […]

The subject of test [2] is Col‐0 (wild‐type) seedlings. Briefly: Triple response assay, wild‐type. It is filed as in vivo, Arabidopsis thaliana. Particulars: dark‐grown, vs w/o ACC. As for the experimental part: Around 10 mg of seeds was filled into a 2‐mL reaction tube and put into a desiccator with the lid opened. Additionally, a beaker with 100 mL 37% perchloric acid was put into the desiccator. 3 mL of 37% hydrochloric acid was pipetted into the beaker to start the reaction, and the lid of the desiccator was closed immediately. The seeds were incubated for 1 h. After the incubation time, the lid of the desiccator was opened slightly, while the tubes were incubated for 20 more minutes to wait for the gas to evaporate. 1 mL of sterile water was added to the reaction tubes, and the seeds were stratified by storage at 4 °C for 3 days before planting (otherwise they can be planted directly after this procedure). Before starting to plant the seeds, any material (e.g., pots and tubs) was sterilized with 70% ethanol. A mixture of soil, vermiculite, and sand (ratio 8:1:1) was prepared, and water was added in the right proportion to make the soil mix soggy but not mushy. The soil mix was sterilized by heating it in the microwave at 800 W for about 10 min. Pots were filled with the sterilized soil mix afterwards. Around 100 μL of 1% agarose in tap water was added to the reaction tubes containing the sterilized seedlings for better pipetting precision, and the seeds were planted into the soil mix. The growth of A. thaliana was performed at 22 °C, 60% humidity, and 100–120 μEinstein light intensity. The plants were watered only from the bottom every 2–3 days. After 5 weeks, the plants were big enough to grow in their own pots instead of several plants being grown crowded in one pot.
The triple response media for the agar plates was prepared by mixing 0.43% (w/v) of Murashige and Skoog (MS) salts and 1% (w/v) sucrose. The pH is adjusted to 6.0 before adding 0.7% (w/v) plant agar to the media and autoclaving it at 121 °C for 30 min. […] The seedlings were documented, and the length of the hypocotyl was analyzed using a binocular microscope and the software Motion 3.0, respectively. […]

Test [3] concerns triple impα loss‐of‐function mutant seedlings. Briefly: Triple response assay, triple impα mutants. It is filed as in vivo, Arabidopsis thaliana. The note with it: 0.1 μM ACC, at least 20 seedlings per condition. As for the experimental part:
To gain further insights into the role of the IMPα superfamily for ethylene signaling, we studied multiple higher order IMPα loss‐of‐function mutants (Fig. 2). […] To check for potential differences in ethylene sensitivity, we supplemented the experiments from Fig. 2B with 0.1 and 1 μM ACC (Fig. 2C). […] These findings indicate that the mutation of three IMPα isoforms leads to diminished sensitivity in ethylene perception, supporting the pivotal role of the IMPα superfamily in ethylene signaling. However, no differences in ethylene sensing were observed among the various triple mutants, further reinforcing the hypothesis of IMPα redundancy in EIN2 transport. The deletion of an excessive number of IMPα isoforms is likely to have detrimental effects on regular plant growth and development, which has already been observed in the triple mutants (impα‐1;impα‐2;impα‐3). Due to the pivotal role of the IMPα‐IMPβ machinery in the nuclear transport of a large number of cargo proteins, we adopted an alternative strategy to investigate the role of IMPα proteins in plant ethylene signal transduction by testing their physical interaction with the ethylene key regulator EIN2.
as §1

In a further test the target is T1, IMPα7_ΔIBB (Arabidopsis thaliana, UniProt Q9M9X7).
T1 construct: hexa-His (TEV site between protein and tag) (C); made in house; host or cells: E. coli BL21gold
Briefly: biochemical. It is filed as binding. The text has this:
Genes encoding several isoforms of the IMPα superfamily were either isolated from Arabidopsis thaliana (IMPα1, ‐2, ‐3, ‐4, ‐8) or synthetically produced by GenScript (IMPα5, ‐6, ‐7, ‐9) and cloned into the pETEV21a vector (modified version of the pET21a vector with an additional TEV cleavage site between the GOI and the His‐tag), which contains a C‐terminal hexa‐His‐tag. Only IMPα5 was additionally cloned into the pETEV16b vector (modified version of the pET16b vector with an additional TEV cleavage site between the GOI and the His‐tag), which contains an N‐terminal deca‐His‐tag (see Table S2 for primer list). The AtEIN2C^1215–1281 gene was cloned into the pETEV16b vector and additionally contained a GB1‐domain at the N terminus to enhance solubility. Most of the proteins were expressed in the E. coli BL21pRARE strain, while IMPα7, IMPα8, and ΔIBB_IMPα1 (lack of the IBB domain) were expressed using the E. coli BL21gold strain. The bacterial cultures were adjusted to an initial OD600 of 0.1 and grown in 2YT media at 37 °C until an OD600 between 0.6 and 0.8 was reached. Subsequently, the protein expression was induced with 0.5 mM IPTG. After two hours, the cells were harvested via centrifugation at 10,000 g for 10 min. IMPα5, IMPα6, IMPα7, IMPα8, ΔIBB_IMPα1, and GB1_AtEIN2C^1215–1281 were expressed at 16 °C overnight with the addition of 2% (v/v) ethanol. […]

The next test relates to EIN2C^479–1294. In words: In planta FLIM‐FRET, EIN2C^479–1294‐CER donor, IMPα‐YFP acceptors. It is filed as cell-based, Arabidopsis thaliana. The note with it: mean, EIN2C^479–1294‐CER donor / IMPα‐YFP acceptor, N. benthamiana epidermal leaf cells. The text has this:
To further investigate the interaction between members of the IMPα superfamily and EIN2 in planta, we used in vivo fluorescence lifetime microscopy and Förster's resonance energy transfer (FLIM‐FRET). Accordingly, the C‐terminal part of EIN2 (EIN2C^479–1294) was fused to the fluorescent protein Cerulean (CER), serving as a donor, and the IMPα isoforms (IMPα1‐7) were fused to YELLOW FL[…] (YFP), serving as acceptors.
A modified version of a previously described procedure was used for the transient transformation of N. benthamiana. An overnight culture of agrobacteria was inoculated in DYT and incubated at 28°C one day before infiltration. […] For co‐infiltration, bacteria solutions were mixed in equal quantities, and Agrobacterium strain GV3101:p19 expressing the p19 silencing inhibitor was added to each mix. […]
Fluorescence lifetime imaging was performed using a protocol described previously. Fluorescence lifetime was measured at a Zeiss LSM 780 confocal microscope (40× water immersion objective, Zeiss C‐PlanApo, NA 1.2). […] Photons were detected in both donor and acceptor channels simultaneously with Tau‐SPADs (PicoQuant, Berlin, Germany). […] Internal response functions for each laser were determined by measuring the fluorescence decay of quenched Atto425 in saturated KI, using the same hardware settings as for the FRET pair of interest. […]

T1 sequence (Q9M9X7 57-528, stated change not applied): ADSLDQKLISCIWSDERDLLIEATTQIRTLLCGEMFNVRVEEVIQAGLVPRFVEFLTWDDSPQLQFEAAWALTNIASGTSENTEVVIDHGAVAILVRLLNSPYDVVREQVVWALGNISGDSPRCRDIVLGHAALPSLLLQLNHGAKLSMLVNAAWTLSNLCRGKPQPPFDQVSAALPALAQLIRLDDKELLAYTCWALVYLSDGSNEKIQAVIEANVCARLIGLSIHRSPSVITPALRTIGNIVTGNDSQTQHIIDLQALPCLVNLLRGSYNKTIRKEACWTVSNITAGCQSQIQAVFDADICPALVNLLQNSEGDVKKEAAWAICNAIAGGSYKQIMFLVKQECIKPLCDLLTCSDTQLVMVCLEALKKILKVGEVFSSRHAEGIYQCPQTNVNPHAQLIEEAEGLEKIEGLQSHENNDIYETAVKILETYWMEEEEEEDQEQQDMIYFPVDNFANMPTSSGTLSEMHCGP

On to `NC1(C(=O)O)CC1` [ACC, 1‐aminocyclopropane‐1‐carboxylic acid], for which the “decrease in hypocotyl length” value in test [1] amounted to 10%. Also, the “reduction in hypocotyl length” value in test [2] (Col‐0, 0.1 μM ACC) was 21%; in test [2] (Col‐0, 1 μM ACC) it was 55.5%; in test [2] (Col‐0, 10 μM ACC) it was 56.5%. The “reduction in hypocotyl length (maximum among triple mutants)” value in test [3] is given as ≤ 7.5%.
For the compound `CC(C)C[C@H](NC(=O)[C@H](CCCNC(=N)N)NC(=O)[C@H](CCCNC(=N)N)NC(=O)[C@H](CCCCN)NC(=O)[C@H](Cc1ccc(O)cc1)NC(=O)[C@H](CCCNC(=N)N)NC(=O)[C@H](CCCCN)NC(=O)[C@H](CC(C)C)NC(=O)c1ccc2c(c1)C(=O)OC21c2ccc(N(C)C)cc2Oc2cc(N(C)C)ccc21)C(=O)O` [TAMRA‐NOP‐1], on IMPα7_ΔIBB, the Kd worked out at 3 ± 0.3 µM.
“IMPα4: A. thaliana IMPα4 fused to YFP, FRET acceptor”: the FRET efficiency in the test on EIN2C^479–1294 was determined as 4.6%.

The values are drawn from paper PMC12871931, “The importin‐alpha superfamily engages in ethylene signaling by shuttling [sequence] INSENSITIVE 2 from the endoplasmic reticulum to the nucleus” (The Febs Journal, 2025).
